# Data reported in PubChem BioAssay (NCI).
#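 Compound exposure: 48 hours, 5 concentrations, 96-well plates. GI50 marks 50% less growth. TGI: total growth inhibition.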
# Experiments:
# Assay in all cases: DTP human tumour cell line panel, 48 h
# EKVX NSCLC = tested on: EKVX NSCLC
# SK-OV-3 ovarian = tested on: SK-OV-3 ovarian
# M14 melanoma = tested on: M14 melanoma
# SF-295 CNS = tested on: SF-295 CNS
# NCI-H460 lung = tested on: NCI-H460 lung
# IGROV1 ovarian = tested on: IGROV1 ovarian
# MDA-MB-435 = tested on: MDA-MB-435
# NCI-H23 lung = tested on: NCI-H23 lung
# OVCAR-3 ovarian = tested on: OVCAR-3 ovarian
# NCI/ADR-RES ovarian = tested on: NCI/ADR-RES ovarian
# SR leukemia = tested on: SR leukemia
# KM12 colon = tested on: KM12 colon
# RPMI-8226 leukemia = tested on: RPMI-8226 leukemia
# LOX IMVI melanoma = tested on: LOX IMVI melanoma
# HS 578T breast = tested on: HS 578T breast
# MCF7 breast = tested on: MCF7 breast
# UACC-62 melanoma = tested on: UACC-62 melanoma
# A549 NSCLC = tested on: A549 NSCLC
# SF-539 CNS = tested on: SF-539 CNS
# NCI-H226 lung = tested on: NCI-H226 lung
# SNB-19 CNS = tested on: SNB-19 CNS
# HOP-92 NSCLC = tested on: HOP-92 NSCLC
# SK-MEL-2 melanoma = tested on: SK-MEL-2 melanoma
# 786-0 renal = tested on: 786-0 renal
# RXF 393 renal = tested on: RXF 393 renal
# COLO 205 colon = tested on: COLO 205 colon
# UO-31 renal = tested on: UO-31 renal
# DU-145 prostate = tested on: DU-145 prostate
# OVCAR-4 ovarian = tested on: OVCAR-4 ovarian
# MOLT-4 leukemia = tested on: MOLT-4 leukemia
# HCT-15 colon = tested on: HCT-15 colon
# U251 CNS = tested on: U251 CNS
# HOP-62 NSCLC = tested on: HOP-62 NSCLC
# TK-10 renal = tested on: TK-10 renal
# OVCAR-5 ovarian = tested on: OVCAR-5 ovarian
# HCC-2998 colon = tested on: HCC-2998 colon
# SNB-75 CNS = tested on: SNB-75 CNS
# HL-60(TB) leukemia = tested on: HL-60(TB) leukemia
# T-47D breast = tested on: T-47D breast
# SK-MEL-28 melanoma = tested on: SK-MEL-28 melanoma
# SN12C renal = tested on: SN12C renal
# SW-620 colon = tested on: SW-620 colon
# CCRF-CEM leukemia = tested on: CCRF-CEM leukemia
# MDA-MB-231 breast = tested on: MDA-MB-231 breast
# A498 renal = tested on: A498 renal
# MALME-3M melanoma = tested on: MALME-3M melanoma
# HCT-116 colon = tested on: HCT-116 colon
# UACC-257 melanoma = tested on: UACC-257 melanoma
# SF-268 CNS = tested on: SF-268 CNS
# HT29 colon = tested on: HT29 colon
# ACHN renal = tested on: ACHN renal
# BT-549 breast = tested on: BT-549 breast
# PC-3 prostate = tested on: PC-3 prostate
# CAKI-1 renal = tested on: CAKI-1 renal
# SK-MEL-5 melanoma = tested on: SK-MEL-5 melanoma
# OVCAR-8 ovarian = tested on: OVCAR-8 ovarian
# K-562 leukemia = tested on: K-562 leukemia
smiles,measurement,setting,value
COc1ccc2c(c1)OCC1c3cc(OC)c4ccccc4c3OC21 (centres undefined),GI50,EKVX NSCLC,25.1 µM
same,TGI,EKVX NSCLC,> 100 µM
same,GI50,SK-OV-3 ovarian,15.9 µM
same,TGI,SK-OV-3 ovarian,> 100 µM
same,GI50,M14 melanoma,7.23 µM
same,TGI,M14 melanoma,> 100 µM
same,GI50,SF-295 CNS,2000 nM
same,TGI,SF-295 CNS,6.91 µM
same,GI50,NCI-H460 lung,4.44 µM
same,TGI,NCI-H460 lung,> 100 µM
same,GI50,IGROV1 ovarian,4.98 µM
same,TGI,IGROV1 ovarian,21.6 µM
same,GI50,MDA-MB-435,2560 nM
same,TGI,MDA-MB-435,7.46 µM
same,GI50,NCI-H23 lung,4.88 µM
same,TGI,NCI-H23 lung,43.2 µM
same,GI50,OVCAR-3 ovarian,1500 nM
same,TGI,OVCAR-3 ovarian,4.08 µM
same,GI50,NCI/ADR-RES ovarian,4 µM
same,TGI,NCI/ADR-RES ovarian,28.2 µM
same,GI50,SR leukemia,3.89 µM
same,TGI,SR leukemia,16.6 µM
same,GI50,KM12 colon,4.82 µM
same,TGI,KM12 colon,> 100 µM
same,GI50,RPMI-8226 leukemia,10.6 µM
same,TGI,RPMI-8226 leukemia,> 100 µM
same,GI50,LOX IMVI melanoma,16.5 µM
same,TGI,LOX IMVI melanoma,> 100 µM
same,GI50,HS 578T breast,11.3 µM
same,TGI,HS 578T breast,37 µM
same,GI50,MCF7 breast,3.59 µM
same,TGI,MCF7 breast,> 100 µM
same,GI50,UACC-62 melanoma,3.05 µM
same,TGI,UACC-62 melanoma,18.9 µM
same,GI50,A549 NSCLC,15.8 µM
same,TGI,A549 NSCLC,> 100 µM
same,GI50,SF-539 CNS,21.3 µM
same,TGI,SF-539 CNS,> 100 µM
same,GI50,NCI-H226 lung,15.6 µM
same,TGI,NCI-H226 lung,90.2 µM
same,GI50,SNB-19 CNS,23.9 µM
same,TGI,SNB-19 CNS,> 100 µM
same,GI50,HOP-92 NSCLC,22.3 µM
same,TGI,HOP-92 NSCLC,> 100 µM
same,GI50,SK-MEL-2 melanoma,12.2 µM
same,TGI,SK-MEL-2 melanoma,77.7 µM
same,GI50,786-0 renal,26.1 µM
same,TGI,786-0 renal,> 100 µM
same,GI50,RXF 393 renal,9.41 µM
same,TGI,RXF 393 renal,46 µM
same,GI50,COLO 205 colon,7.98 µM
same,TGI,COLO 205 colon,33.1 µM
same,GI50,UO-31 renal,22.2 µM
same,TGI,UO-31 renal,> 100 µM
same,GI50,DU-145 prostate,18.8 µM
same,TGI,DU-145 prostate,> 100 µM
same,GI50,OVCAR-4 ovarian,16.5 µM
same,TGI,OVCAR-4 ovarian,> 100 µM
same,GI50,MOLT-4 leukemia,9.82 µM
same,TGI,MOLT-4 leukemia,> 100 µM
same,GI50,HCT-15 colon,6.06 µM
same,TGI,HCT-15 colon,> 100 µM
same,GI50,U251 CNS,9.95 µM
same,TGI,U251 CNS,67 µM
same,GI50,HOP-62 NSCLC,14.7 µM
same,TGI,HOP-62 NSCLC,> 100 µM
same,GI50,TK-10 renal,11.8 µM
same,TGI,TK-10 renal,53.9 µM
same,GI50,OVCAR-5 ovarian,10.2 µM
same,TGI,OVCAR-5 ovarian,57 µM
same,GI50,HCC-2998 colon,1980 nM
same,TGI,HCC-2998 colon,7.26 µM
same,GI50,SNB-75 CNS,11.8 µM
same,TGI,SNB-75 CNS,47.9 µM
same,GI50,HL-60(TB) leukemia,2610 nM
same,TGI,HL-60(TB) leukemia,9.61 µM
same,GI50,T-47D breast,13.7 µM
same,TGI,T-47D breast,47 µM
same,GI50,SK-MEL-28 melanoma,9.13 µM
same,TGI,SK-MEL-28 melanoma,> 100 µM
same,GI50,SN12C renal,17.1 µM
same,TGI,SN12C renal,77.4 µM
same,GI50,SW-620 colon,3.98 µM
same,TGI,SW-620 colon,> 100 µM
same,GI50,CCRF-CEM leukemia,16.2 µM
same,TGI,CCRF-CEM leukemia,> 100 µM
same,GI50,MDA-MB-231 breast,8.68 µM
same,TGI,MDA-MB-231 breast,82.9 µM
same,GI50,A498 renal,25 µM
same,TGI,A498 renal,> 100 µM
same,GI50,MALME-3M melanoma,5.01 µM
same,TGI,MALME-3M melanoma,> 100 µM
same,GI50,HCT-116 colon,6.65 µM
same,TGI,HCT-116 colon,> 100 µM
same,GI50,UACC-257 melanoma,35.5 µM
same,TGI,UACC-257 melanoma,> 100 µM
same,GI50,SF-268 CNS,12.1 µM
same,TGI,SF-268 CNS,> 100 µM
same,GI50,HT29 colon,3.84 µM
same,TGI,HT29 colon,> 100 µM
same,GI50,ACHN renal,27.4 µM
same,TGI,ACHN renal,> 100 µM
same,GI50,BT-549 breast,11.5 µM
same,TGI,BT-549 breast,97.2 µM
same,GI50,PC-3 prostate,8.82 µM
same,TGI,PC-3 prostate,> 100 µM
same,GI50,CAKI-1 renal,5.05 µM
same,TGI,CAKI-1 renal,44.9 µM
same,GI50,SK-MEL-5 melanoma,5.11 µM
same,TGI,SK-MEL-5 melanoma,24.2 µM
same,GI50,OVCAR-8 ovarian,44.4 µM
same,TGI,OVCAR-8 ovarian,> 100 µM
same,GI50,K-562 leukemia,4.62 µM
same,TGI,K-562 leukemia,> 100 µM
